Measured values taken from ChEMBL document CHEMBL1201862, “PubChem BioAssay data set” (2004).
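Cultured in 96-well plates, cells were exposed to test compound for 48 hours across five concentrations. The concentration for 50% growth inhibition is given as GI50.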 The source made the active and inactive calls. Cut-off read from the data, not from the text of the source: active = GI50 up to about 1.1 µM and inactive = higher.

Tests used:
Assay in all cases: DTP human tumour cell line panel, 48 h
[1] = tested on: EKVX
[2] = tested on: IGROV-1
[3] = tested on: M14
[4] = tested on: NCI-H23
[5] = tested on: NCI-H522
[6] = tested on: OVCAR-3
[7] = tested on: OVCAR-8
[8] = tested on: RPMI-8226
[9] = tested on: SF-268
[10] = tested on: SF-295
[11] = tested on: SW-620
[12] = tested on: TK-10
[13] = tested on: U-251
[14] = tested on: A498
[15] = tested on: SN12C
[16] = tested on: HCC 2998

Measured: GI50

COc1ccc(C[C@H](N)C(=O)N2C[C@@H](CO)C[C@@H](n3cnc4c(N(C)C)ncnc43)C2)cc1
inactive: [1] > 100 µM | [2] > 100 µM | [3] > 100 µM | [4] > 100 µM | [5] > 100 µM | [6] > 100 µM | [7] > 100 µM | [8] > 100 µM | [9] > 100 µM | [10] > 100 µM | [11] > 100 µM | [12] > 100 µM | [13] > 100 µM

CC(=O)Oc1c(C)n(CCCl)ccc1=O
inactive: [14] > 100 µM | [1] > 100 µM | [3] > 100 µM | [5] > 100 µM | [6] > 100 µM | [7] > 100 µM | [8] > 100 µM | [9] > 100 µM | [10] > 100 µM | [15] > 100 µM | [12] 22.5 µM | [13] > 100 µM

CC(=O)Oc1c2c(c(O)c3ccccc13)C(n1cnc3c(ncn3C3OC(CO)C4OC(C)(C)OC43)c1=N)CCC2 (configuration not stated)
inactive: [14] 17.3 µM | [1] 22.2 µM | [16] 15 µM | [2] 20.2 µM | [4] 16.8 µM | [5] 5.87 µM | [6] 14.5 µM | [7] 11.2 µM | [8] 3.1 µM | [9] 16.4 µM | [10] 13.9 µM | [15] 18.1 µM | [11] 15.3 µM | [12] 21.5 µM | [13] 18.9 µM

FC1OC2OC1C(OCc1ccccc1)C(OCc1ccccc1)C2OCc1ccccc1 (configuration not stated)
inactive: [14] > 100 µM | [1] 87.7 µM | [2] 34.6 µM | [3] 28.1 µM | [4] > 100 µM | [5] > 10 µM | [6] 36.8 µM | [7] 35.4 µM | [8] 22.9 µM | [9] 32.4 µM | [10] > 100 µM | [15] 58.6 µM | [11] 40.6 µM | [12] 52.8 µM | [13] 88.3 µM

CCN(CC)CC(C)C(=O)/C=C/c1ccc(C)cc1 (configuration not stated)
inactive: [14] 4.74 µM | [1] 13.8 µM | [16] 3.13 µM | [2] 2.2 µM | [3] 2.2 µM | [4] 6.31 µM | [6] 4.2 µM | [7] 2.07 µM | [8] 1.64 µM | [9] 2.1 µM | [10] 15 µM | [15] 1.63 µM | [11] 1.57 µM | [12] 2.03 µM | [13] 1.76 µM

Nc1ccc(C(=O)N/C(=C\C=C\c2ccco2)c2nc3c(O)nc(S)nc3[nH]2)cc1
inactive: [1] > 100 µM | [16] > 100 µM | [2] > 100 µM | [3] > 100 µM | [4] > 100 µM | [5] > 100 µM | [6] > 100 µM | [7] > 100 µM | [9] > 100 µM | [10] > 100 µM | [15] > 100 µM | [11] > 100 µM | [12] > 100 µM | [13] > 100 µM

COc1cc(C=O)cc(O)c1O
inactive: [1] > 100 µM | [16] > 100 µM | [2] > 100 µM | [3] > 100 µM | [4] > 100 µM | [5] 99.8 µM | [6] > 100 µM | [7] > 100 µM | [8] > 100 µM | [9] > 100 µM | [10] > 100 µM | [15] > 100 µM | [11] > 100 µM | [12] > 100 µM | [13] > 100 µM

COc1ccc(C(=O)O)c(Br)c1OCc1ccccc1
inactive: [14] > 100 µM | [1] > 100 µM | [2] > 100 µM | [3] > 100 µM | [4] > 100 µM | [5] > 100 µM | [6] > 100 µM | [7] > 100 µM | [8] > 100 µM | [9] > 100 µM | [10] > 100 µM | [15] 92.5 µM | [11] > 100 µM | [12] > 100 µM | [13] > 100 µM

Cc1ccc(SSc2ccc(C)cc2C(=O)O)c(C(=O)O)c1
inactive: [14] > 100 µM | [1] > 100 µM | [4] > 100 µM | [5] > 100 µM | [7] > 100 µM | [9] > 100 µM | [10] > 100 µM | [15] > 100 µM | [11] > 100 µM | [12] > 100 µM | [13] > 100 µM

C1CNCCNCCNCCN1
inactive: [14] > 100 µM | [1] > 100 µM | [16] 64.3 µM | [2] > 100 µM | [3] > 100 µM | [4] > 100 µM | [5] > 100 µM | [6] 72.6 µM | [7] > 100 µM | [8] > 100 µM | [10] > 100 µM | [15] > 100 µM | [11] 52.2 µM | [12] > 100 µM | [13] 24 µM

CC1=CC(/C=C(\C)CCCc2ccoc2)C2(OC(=O)C(C)=C2O)[C@H]2C1CC[C@@H]2C (some centres not stated)
inactive: [14] 15.5 µM | [1] 31.7 µM | [16] 29.9 µM | [2] 32.3 µM | [3] 23.1 µM | [4] 20.5 µM | [5] 13.9 µM | [6] 21.4 µM | [7] 28.6 µM | [8] 13.3 µM | [10] 20.7 µM | [15] 20.5 µM | [11] 33.6 µM | [12] 29.2 µM | [13] 25 µM

Cc1ccc2c(c1)C1(C)OC(CC(N)C1O)O2 (configuration not stated)
inactive: [1] > 100 µM | [2] > 100 µM | [3] > 100 µM | [4] > 100 µM | [5] > 100 µM | [6] > 100 µM | [7] > 100 µM | [8] > 100 µM | [10] > 100 µM | [15] > 100 µM | [11] > 100 µM | [12] > 100 µM | [13] > 100 µM

COc1ccc2ccc([Se]c3ccc4ccc(OC)cc4c3)cc2c1
inactive: [14] > 100 µM | [16] > 100 µM | [2] > 100 µM | [3] > 100 µM | [4] > 100 µM | [5] 84.5 µM | [6] > 100 µM | [7] 21.8 µM | [8] 49.9 µM | [9] 61.1 µM | [10] 74.6 µM | [15] 90.6 µM | [11] > 100 µM | [12] > 100 µM | [13] 29.9 µM

CCCCCc1cc(OC(=O)c2c(O)cc(OC)cc2CCCCC)cc(O)c1C(=O)O
inactive: [14] 19.8 µM | [1] 19 µM | [16] 15.3 µM | [2] 16.6 µM | [3] 20.4 µM | [4] 12.4 µM | [5] 11.1 µM | [7] 18.2 µM | [8] 14.5 µM | [9] 13.2 µM | [10] 16.8 µM | [15] 15.9 µM | [11] 18.3 µM | [12] 18.6 µM | [13] 15.2 µM

O=C1COc2cc3c(cc2N1)SCCC(=O)N3
inactive: [14] > 100 µM | [1] > 100 µM | [16] > 100 µM | [2] > 100 µM | [3] > 100 µM | [4] > 100 µM | [5] > 100 µM | [6] > 100 µM | [7] > 100 µM | [8] > 100 µM | [9] > 100 µM | [10] > 100 µM | [15] > 100 µM | [11] > 100 µM | [12] > 100 µM

CCc1cccc(C)c1NC(=O)CCc1nnc2s/c(=C\c3cccc4ccccc34)c(=O)n12
inactive: [14] > 100 µM | [16] > 100 µM | [2] > 100 µM | [3] 45.6 µM | [4] > 100 µM | [5] > 100 µM | [6] 78 µM | [7] > 100 µM | [8] 23.8 µM | [9] > 100 µM | [10] 71.1 µM | [15] > 100 µM | [11] > 100 µM | [12] > 100 µM | [13] > 100 µM

COC1CC(OS(=O)(=O)c2ccc(C)cc2)C(OS(=O)(=O)c2ccc(C)cc2)C(COS(=O)(=O)c2ccc(C)cc2)O1 (configuration not stated)
active: [9] 1.02 µM
inactive: [1] 11.2 µM | [16] 12.8 µM | [2] 4.89 µM | [3] 5.22 µM | [4] 2.92 µM | [5] 3.8 µM | [6] 1.89 µM | [7] 1.82 µM | [8] 19.4 µM | [10] 1.55 µM | [15] 3.96 µM | [11] 15.6 µM | [13] 3.01 µM

C/C(=N\N(C)C)C(CN(C)C)C(c1ccccc1)c1c(O)c2ccccc2oc1=O (configuration not stated)
inactive: [1] 68.7 µM | [16] > 100 µM | [2] > 100 µM | [3] > 100 µM | [4] > 100 µM | [5] > 100 µM | [6] > 100 µM | [7] > 100 µM | [8] > 100 µM | [9] > 100 µM | [10] > 100 µM | [15] > 100 µM | [11] > 100 µM | [12] > 100 µM | [13] > 100 µM

COc1cc2c(c3c1C=CCO3)C(=O)c1ccccc1C2=O
inactive: [1] > 100 µM | [16] 50.2 µM | [2] 26.8 µM | [3] 82 µM | [4] > 100 µM | [5] 29.7 µM | [6] 42.8 µM | [7] 40.8 µM | [8] 32.8 µM | [9] 47.6 µM | [10] > 100 µM | [15] 43.9 µM | [11] 30.4 µM | [12] 50.4 µM | [13] 30.8 µM
